Measurements taken from patent EP3246013A1, “INHIBITION OF THE ADHESION OF MICROORGANISMS PATHOGENATED BY A STEARATE AND/OR SORBITAN SUCROSE IN THE COSMETIC TREATMENT OF ATOPIC DERMATITIS” (priority 2012, dated 2014).

Legend:
[1] = test system: S. aureus; assay: Ex vivo inhibition of adhesion of S. aureus on human corneocytes (D-Squame discs), crystal violet staining and image counting; type: cell-based, Staphylococcus aureus; conditions: for Inhibition de l'adhésion de S. aureus (%) Essai 1 / Inhibition de l'adhésion de S. aureus (%) Essai 2: human corneocytes; for Inhibition de l'adhésion de S. aureus (%) Essai 1: trial 1; for Inhibition de l'adhésion de S. aureus (%) Essai 2: trial 2
Protocol: Afin de corroborer les résultats obtenus in vitro, un test d'adhésion ex vivo sur des cornéocytes humains a été mis au point d'après la méthode réalisée chez le chien (McEwan et al., 2005).
La souche clinique de S. aureus (CIP 65-8) a été prélevée sur un patient, au sein du laboratoire de bactériologie clinique de l'hôpital de la Timone à Marseille.
La souche de S. aureus est inoculée dans 10 ml de milieu 'Nutrient Broth N° 2' (Oxoid) et incubée sous agitation à 37°C pendant 12 heures. Les bactéries sont collectées par centrifugation et le culot bactérien est remis en suspension dans un tampon phosphate PBS. La population bactérienne est ajustée approximativement à 10^6 CFU/ml avec de l'eau osmosée.
Des zones cibles sont délimitées sur chaque bras d'un volontaire humain. Pour chaque zone, les débris cutanés sont éliminés grâce à 5 « pré-strippings » successifs avec des disques Sellotape™Original (diamètre 22 mm). Les cornéocytes sont ensuite collectés sur chaque zone cible à l'aide de disques adhésifs D-Squame™ (diamètre 22 mm) et d'un applicateur de disque D-Squame réglé à la pression de 150 g/cm^2.
Les disques sont ensuite placés dans des boîtes de Pétri, de diamètre 35 mm. Les disques sont alors recouverts par 0,5 ml d'eau ou 0,5 ml de la solution de S. aureus à 10^6 CFU/ml, contenant le composé polyhydroxylé à tester, à raison de trois zones pour chacun d'entre eux.
Les composés polyhydroxylés testés avec ce protocole expérimental sont : • le xylitol, à une concentration finale de 0,5%; • le sucrose stéarate HLB 16 (sucrose monostéarate, SURFHOPE C1816,), à une concentration finale de 1%, • le sucrose laurate monoester (SURFHOPE C1216), à une concentration finale de 0,1 %, • le polysorbate 60, à une concentration finale de 0,1%, • le polysorbate 60, à une concentration finale de 1%, • le polysorbate 20, à une concentration finale de 0,1%,
Toutes les solutions sont préparées dans de l'eau et mises en contact avec S. aureus à température ambiante 45 min avant le début de l'expérience d'adhésion. Les boites sont ensuite incubées à 37°C pendant 60 min. Les disques sont alors rincés avec de l'eau osmosée, ce qui permet d'éliminer les bactéries n'ayant pas adhéré aux cornéocytes. Les bactéries ayant adhéré aux cornéocytes humains sont alors colorées par du cristal violet oxalaté pendant 10 secondes. Les disques sont enfin rincés avec de l'eau osmosée, placés sur une lame de microscope et séchés à l'air libre pendant 24 h.
Les images des bactéries adhérentes sont acquises à l'aide d'un microscope Olympus BX 53 couplé à une caméra numérique. Les images collectées sont ensuite analysées par le logiciel UTHSCSA Image Tool (Reindeer Graphics Inc.). Le nombre de bactéries par disque est calculé par une moyenne arithmétique de 10 à 12 images, ce qui correspond à la surface d'environ 100 cornéocytes. Les comparaisons entre différentes moyennes sont effectuées avec le logiciel Statgraphics Plus (Manugistics Inc.).

[2] = test system: Staphylococcus aureus; assay: In vitro inhibition of adhesion of S. aureus on a solid support (glass chamber slide), crystal violet staining and automatic counting; type: cell-based; conditions: for Nombre de cellules par champ: adhesion to glass slide, mean of three fields ± SD, water control 99 ± 11; for inhibition de l'adhésion (% par rapport au témoin eau): glass slide
Protocol: Le protocole suivant est mis en oeuvre : • Une préculture de S. aureus issue du laboratoire de bactériologie clinique de l'hôpital de la Timone (CIP 65-8) est réalisée dans du milieu 'Nutrient Broth N° 2' (Oxoid), pendant 12h, à 37°C; • La culture est centrifugée à 9 000 g, pendant 10 min et le culot bactérien est remis en suspension dans un tampon phosphate (PBS); • A partir de cette suspension, une dilution au 1/50 est réalisée dans une solution aqueuse ou une solution aqueuse contenant le composé polyhydroxylé à tester. Il s'agit soit du xylitol, soit du sucrostéarate HLB 16 (SURFHOPE™ C1816); • Les bactéries sont préincubées en présence du composé polyhydroxylé à tester pendant 45 min, à 37 °C; • Le mélange (100 µl) est ensuite déposé dans un puits d'une lame cytologique en verre, de surface fixe (0,8 cm^2) et délimitée par des parois, c'est-à-dire une lame adaptée à la culture cellulaire (Chamber Slide System, Labtek); • Les cultures bactériennes sont ensuite incubées à 37°C, pendant 60 min et ultérieurement rincées délicatement avec de l'eau ultra pure, ce qui permet d'éliminer les bactéries n'ayant pas adhéré à la surface du puits de la lame; • Les bactéries ayant adhéré dans chaque puits sont par la suite colorées par le cristal violet pendant 10 secondes, puis rincées et séchées pendant 12h, à 25°C; • Les bactéries sont enfin observées à l'aide d'un microscope optique, par grossissement x 1000, en immersion, les champs étant parfaitement homogènes; • Un comptage automatique des bactéries dans chaque puits est finalement réalisé à l'aide d'un logiciel approprié.
Selon ce protocole, l'effet des composés polyhydroxylés a été analysé pour l'activité d'inhibition de l'adhésion de S. aureus sur le support solide. Le xylitol à une concentration finale de 0,5% et le sucrostéarate HLB 16 (sucrose monostéarate, SURFHOPE C18-C16) à une concentration finale de 1% ont été testés. Tableau 1 : Effets du xylitol (0,5%) et du sucrostéarate HLB 16 (1%) sur l'adhésion de S. aureus à la surface des lames de verre. Les résultats correspondent à une moyenne du comptage de trois champs, qui est présentée avec l'écart type correspondant.

Row | Compound | effet sur l'adhésion de S. aureus sur les cornéocytes ([1]; final concentration 0,1%) | Inhibition de l'adhésion de S. aureus (%) Essai 1 ([1]; final concentration 0,1%) | activité inhibitrice (adhésion de S. aureus sur les cornéocytes) ([1]; final concentration 1%) [%] | Inhibition de l'adhésion de S. aureus (%) Essai 1 ([1]; final concentration 1%) | further results
1 | monostéarate de sorbitan polyoxyethylène 20 [Polysorbate 60] | résultats très satisfaisants | 39,8% | ≥ 50 | 54% | –
2 | sucrose monostéarate [Sucrostéarate HLB 16] | – | – | ≥ 50 | 57,0% | Nombre de cellules par champ ([2]; final concentration 1%): 12 ± 1; inhibition de l'adhésion (% par rapport au témoin eau) ([2]; final concentration 1%): 88%; inhibition de l'adhésion de S. aureus à la surface des lames de verre ([2]; text conclusion in words, 1%): forte inhibition; Inhibition de l'adhésion de S. aureus (%) Essai 2 ([1]; final concentration 1%): 49,6%
3 | sucrose laurate monoester [reference compound] | augmentation significative de l'adhésion | -22.8% | – | – | –
4 | OC[C@@H](O)[C@H](O)[C@@H](O)CO [Xylitol, xylitol, reference compound] | – | – | – | – | Nombre de cellules par champ ([2]; final concentration 0,5%): 91 ± 6; inhibition de l'adhésion (% par rapport au témoin eau) ([2]; final concentration 0,5%): 8%; effet inhibiteur sur l'adhésion de S. aureus sur les cornéocytes ([1]; final concentration 0,5%): ~20%; Inhibition de l'adhésion de S. aureus (%) Essai 1 ([1]; final concentration 0,5%): 21,0%; Inhibition de l'adhésion de S. aureus (%) Essai 2 ([1]; final concentration 0,5%): 20,2%
5 | monolaurate de sorbitan ethoxylé [Polysorbate 20] | résultats très satisfaisants | 57% | – | – | –
